Consider 23 compounds from patent publication US8937078B2, “Quinazolinones as prolyl hydroxylase inhibitors” (Janssen Pharmaceutica NV, priority 2009, dated 2015).

One experiment relates to Hep-3B cells. The experiment can be described thus: Cellular assay: erythropoietin secretion in Hep-3B cells. The note with it: Homo sapiens, Hep3B, 100 μM compound, 24 hours, percent of EPO secretion relative to assay control compound 7-[(4-Chloro-phenyl)-(5-methyl-isoxazol-3-ylamino)-methyl]-quinolin-8-ol, read-out: Cellular % EPO Stimulation. It counts as cell-based, human. The gist of the method: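 Hep-3B cells in DMEM with 10% FBS, treated 24 h after plating with compounds at 100 μM final for a further 24 h. Secreted EPO in supernatant measured by MSD electrochemiluminescence sandwich immunoassay with anti-EPO detection antibody.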

The target of a further experiment is T1, human PHD2 (PHD2181-417) (Homo sapiens, UniProt Q9GZT9).
T1 construct: Smt (SUMO) tag (cleaved yes); made in house; host or cells: E. coli BL21 (pBAD vector)
The experiment can be described thus: PHD enzymatic assay ([14C]-succinic acid production). It counts as biochemical. The conditions noted are these: PHD2181-417, HIF-1α peptide 10 μM, average of results; read-out: Enzyme pIC50 (converted). In a few lines:
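Activity measured as [14C]-succinic acid formed from [5-14C]-2-oxoglutarate over 10 minutes, with peptide substrate at 10 μM, in Tris-HCl pH 7.5 buffer containing catalase, DTT and ascorbate. Unreacted oxoglutarate removed by DNP derivatisation; supernatant beta-counted.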

T1 sequence (Q9GZT9 181-417): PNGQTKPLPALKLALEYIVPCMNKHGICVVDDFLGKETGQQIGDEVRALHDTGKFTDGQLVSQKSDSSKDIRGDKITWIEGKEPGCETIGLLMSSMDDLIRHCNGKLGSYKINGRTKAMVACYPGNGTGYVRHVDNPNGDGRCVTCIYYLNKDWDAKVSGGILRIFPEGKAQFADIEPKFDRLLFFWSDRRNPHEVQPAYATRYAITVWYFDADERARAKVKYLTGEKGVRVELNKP

Consider `COc1ccc(S(=O)(=O)c2cc3c(=O)[nH]c(-n4cc(C(=O)O)cn4)nc3cc2Cl)cc1OC` [Example 71, 1-[7-Chloro-6-(3,4-dimethoxy-benzenesulfonyl)-4-oxo-3,4-dihydro-quinazolin-2-yl]-1H-pyrazole-4-carboxylic acid], for which the Emax at 100 µM with Hep-3B cells stood at 16%. Besides, the IC50 on human PHD2 (PHD2181-417) is 15.8 nM.

In the case of `O=C(O)c1cnn(-c2nc3ccc(Oc4cc(F)cc(C(F)(F)F)c4)cc3c(=O)[nH]2)c1` [Example 97, 1-[6-(3-fluoro-5-trifluoromethyl-phenoxy)-4-oxo-3,4-dihydro-quinazolin-2-yl]-1H-pyrazole-4-carboxylic acid], the Emax at 100 µM in the experiment on Hep-3B cells was 37%. Also, the IC50 on human PHD2 (PHD2181-417) is 20 nM.

Take `O=C(O)c1cnn(-c2nc3ccc(OC4CCCCC4)cc3c(=O)[nH]2)c1` [Example 102, 1-(6-cyclohexyloxy-4-oxo-3,4-dihydro-quinazolin-2-yl)-1H-pyrazole-4-carboxylic acid]: the Emax at 100 µM in the experiment on Hep-3B cells came out at 59%. Also, at human PHD2 (PHD2181-417), the IC50 is 20 nM.

For the compound `O=C(O)c1cnn(-c2nc3ccc(Cc4ccccc4)cc3c(=O)[nH]2)c1` [Example 105, 1-(6-benzyl-4-oxo-3,4-dihydro-quinazolin-2-yl)-1H-pyrazole-4-carboxylic acid], in the experiment on Hep-3B cells, the Emax at 100 µM is 129%. Also, at human PHD2 (PHD2181-417), the IC50 is 31.6 nM.

Consider `O=C(O)c1cnn(-c2nc3ccc(Oc4cccnc4)cc3c(=O)[nH]2)c1` [Example 65, 1-[4-Oxo-6-(pyridin-3-yloxy)-3,4-dihydro-quinazolin-2-yl]-1H-pyrazole-4-carboxylic acid], for which, in the experiment on Hep-3B cells, the Emax at 100 µM is 42%. On human PHD2 (PHD2181-417), the IC50 was 25.1 nM.

Consider `O=C(O)c1cnn(-c2nc3cc(S(=O)(=O)c4ccc(Cl)cc4)ccc3c(=O)[nH]2)c1` [Example 82, 1-[7-(4-Chloro-benzenesulfonyl)-4-oxo-3,4-dihydro-quinazolin-2-yl]-1H-pyrazole-4-carboxylic acid], for which the Emax at 100 µM with Hep-3B cells was found to be 15%. The IC50 at human PHD2 (PHD2181-417) is 63.1 nM.

As for `Nc1ccc2nc(-n3cc(C(=O)O)cn3)[nH]c(=O)c2c1` [Example 180, 1-[6-amino-4-oxo-3,4-dihydro-quinazolin-2-yl]-1H-pyrazole-4-carboxylic acid], in the experiment on Hep-3B cells, the Emax at 100 µM was 8%. Moreover, at human PHD2 (PHD2181-417), the IC50 was 63.1 nM.

Turning to `O=C(O)c1cnn(-c2nc3cc(Cl)c(Oc4cccc5c4CCCC5)cc3c(=O)[nH]2)c1` [Example 55, 1-[7-Chloro-4-oxo-6-(5,6,7,8-tetrahydro-naphthalen-1-yloxy)-3,4-dihydro-quinazolin-2-yl]-1H-pyrazole-4-carboxylic acid], the Emax at 100 µM with Hep-3B cells is 25%. The IC50 at human PHD2 (PHD2181-417) is 31.6 nM.

Regarding `COc1cccc(C2CCCN(c3cc4c(=O)[nH]c(-n5cc(C(=O)O)cn5)nc4cc3Cl)C2)c1` (racemic) [Example 86, (rac)-1-{7-Chloro-6-[3-(3-methoxy-phenyl)-piperidin-1-yl]-4-oxo-3,4-dihydro-quinazolin-2-yl}-1H-pyrazole-4-carboxylic acid], the Emax at 100 µM in the experiment on Hep-3B cells amounted to 71%. In addition, the IC50 on human PHD2 (PHD2181-417) was 25.1 nM.

As to `O=C(O)c1cnn(-c2nc3ccccc3c(=O)[nH]2)c1` [Example 126, 1-(4-Oxo-3,4-dihydro-quinazolin-2-yl)-1H-pyrazole-4-carboxylic acid], the Emax at 100 µM with Hep-3B cells stood at 9%. Also, on human PHD2 (PHD2181-417), the IC50 is 63.1 nM.

Consider `O=C(O)c1cnn(-c2nc3ccc(C4CCCCC4)cc3c(=O)[nH]2)c1` [Example 21, 1-(6-Cyclohexyl-4-oxo-3,4-dihydro-quinazolin-2-yl)-1H-pyrazole-4-carboxylic acid], for which the Emax at 100 µM in the experiment with Hep-3B cells is 84%. On human PHD2 (PHD2181-417), the IC50 is 25.1 nM.

For the compound `Cc1ccc(Oc2ccc3nc(-n4cc(C(=O)O)cn4)[nH]c(=O)c3c2)cc1` [Example 47, 1-(4-Oxo-6-p-tolyloxy-3,4-dihydro-quinazolin-2-yl)-1H-pyrazole-4-carboxylic acid], the Emax at 100 µM with Hep-3B cells came to 95%. Moreover, the IC50 at human PHD2 (PHD2181-417) was 31.6 nM.

With `O=C(O)c1cnn(-c2nc3ccc(NCc4c(F)cccc4F)cc3c(=O)[nH]2)c1` [Example 176, 1-[6-(2,6-Difluoro-benzylamino)-4-oxo-3,4-dihydro-quinazolin-2-yl]-1H-pyrazole-4-carboxylic acid], the Emax at 100 µM in the experiment with Hep-3B cells amounted to 26%. For the same compound, the IC50 at human PHD2 (PHD2181-417) is 39.8 nM.

For the compound `O=C(O)c1cnn(-c2nc3cc(F)c(Oc4ccccc4)c(F)c3c(=O)[nH]2)c1` [Example 64, 1-(5,7-Difluoro-4-oxo-6-phenoxy-3,4-dihydro-quinazolin-2-yl)-1H-pyrazole-4-carboxylic acid], the Emax at 100 µM with Hep-3B cells worked out at 22%. For the same compound, the IC50 at human PHD2 (PHD2181-417) was 25.1 nM.

`O=C(O)c1cnn(-c2nc3ccc(-c4ccc(F)cc4)cc3c(=O)[nH]2)c1` [Example 197, 1-[6-(4-Fluoro-phenyl)-4-oxo-3,4-dihydro-quinazolin-2-yl]-1H-pyrazole-4-carboxylic acid]: the Emax at 100 µM in the experiment with Hep-3B cells came out at 108%. The IC50 at human PHD2 (PHD2181-417) was 20 nM.

Turning to `O=C(O)c1cnn(-c2nc3c(F)cccc3c(=O)[nH]2)c1` [Example 118, 1-(8-Fluoro-4-oxo-3,4-dihydro-quinazolin-2-yl)-1H-pyrazole-4-carboxylic acid], the Emax at 100 µM in the experiment on Hep-3B cells came to 16%. At human PHD2 (PHD2181-417), the IC50 was 79.4 nM.

As for `O=C(O)c1cnn(-c2nc3ccc(COc4ccccc4)cc3c(=O)[nH]2)c1` [Example 74, 1-(4-Oxo-6-phenoxymethyl-3,4-dihydro-quinazolin-2-yl)-1H-pyrazole-4-carboxylic acid], the Emax at 100 µM with Hep-3B cells was found to be 35%. For the same compound, the IC50 on human PHD2 (PHD2181-417) was 31.6 nM.

In the case of `O=C(O)c1cnn(-c2nc3c(Cl)cccc3c(=O)[nH]2)c1` [Example 14, 1-(8-Chloro-4-oxo-3,4-dihydro-quinazolin-2-yl)-1H-pyrazole-4-carboxylic acid], in the experiment with Hep-3B cells, the Emax at 100 µM was found to be 8%. Besides, at human PHD2 (PHD2181-417), the IC50 is 251 nM.

Turning to `O=C(O)c1cnn(-c2nc3ccc(-c4ccccc4C(F)(F)F)cc3c(=O)[nH]2)c1` [Example 201, 1-[4-Oxo-6-(2-trifluoromethyl-phenyl)-3,4-dihydro-quinazolin-2-yl]-1H-pyrazole-4-carboxylic acid], in the experiment with Hep-3B cells, the Emax at 100 µM was determined as 78%. The IC50 on human PHD2 (PHD2181-417) is 25.1 nM.

Turning to `O=C(O)c1cnn(-c2nc3cc(F)c(Oc4ccc5ccccc5c4)cc3c(=O)[nH]2)c1` [Example 52, 1-[7-Fluoro-6-(naphthalen-2-yloxy)-4-oxo-3,4-dihydro-quinazolin-2-yl]-1H-pyrazole-4-carboxylic acid], in the experiment with Hep-3B cells, the Emax at 100 µM was determined as 76%. For the same compound, the IC50 at human PHD2 (PHD2181-417) was 39.8 nM.

Regarding `CS(=O)(=O)c1cccc(-c2ccc3nc(-n4cc(C(=O)O)cn4)[nH]c(=O)c3c2)c1` [Example 206, 1-[6-(3-Methanesulfonyl-phenyl)-4-oxo-3,4-dihydro-quinazolin-2-yl]-1H-pyrazole-4-carboxylic acid], in the experiment on Hep-3B cells, the Emax at 100 µM turned out to be 13%. The IC50 at human PHD2 (PHD2181-417) was 25.1 nM.

Regarding `NC(=O)c1cccc(CNc2ccc3nc(-n4cc(C(=O)O)cn4)[nH]c(=O)c3c2)c1` [Example 179, 1-[6-(3-Carbamoyl-benzylamino)-4-oxo-3,4-dihydro-quinazolin-2-yl]-1H-pyrazole-4-carboxylic acid], the Emax at 100 µM with Hep-3B cells was 12%. In addition, on human PHD2 (PHD2181-417), the IC50 was 25.1 nM.

Take `O=C(O)c1cnn(-c2nc3c4c(ccc3c(=O)[nH]2)CCCC4)c1` [Example 142, 1-(4-Oxo-3,4,7,8,9,10-hexahydro-benzo[h]quinazolin-2-yl)-1H-pyrazole-4-carboxylic acid]: the Emax at 100 µM in the experiment with Hep-3B cells worked out at 23%. At human PHD2 (PHD2181-417), the IC50 was 251 nM.
